# Measured values taken from patent US11638689B2, “Deep topical systemic nitric oxide therapy apparatus and method” (SYK Technologies LLC, priority 2013, dated 2023).
# Tested on: bacteria on a surface, such as a person's skin
# Experiment: Nitric oxide dose required to kill bacteria on a surface
# Settings: ppm of nitric oxide
compound,measurement,value
[N]=O [nitric oxide],dose required to kill bacteria on a surface,≥ 320 ppm
